# Patent US20140357713A1, “ANTIMICROBIAL COMPOUNDS AND METHODS OF USE” (NexMed Holdings, Inc., priority 2012, published 2014)
# Structures can show the parent of a compound that is named as a salt. Where two headings read alike, the source gives them in different places.
# Key:
# [1] = tested on: Candida albicans (ATCC 90029); assay: Minimum inhibitory concentration (MIC) assay, Example 33; assay type: cell-based
# Experimental: (§1) Thirty compounds were tested for antimicrobial activity using standard procedures and standard strains for both the minimum inhibitory concentration (MIC) assay and a time kill study. Both the MIC assay and the time kill study were performed according to Clinical and Laboratory Standards Institute (CLSI) guidelines. Three bacteria strains, Escherichia coli (ATCC 25922), Pseudomonas aeruginosa (ATCC 27853), Staphulococcus aureus (ATCC 29213), and two fungus strains, Candida albicans (ATCC 90029) and Aspergillus niger (CMCC 98003), were used in the experiments.
# (§2) Preparation of cultures. Before the experiment, two days for the bacteria strains and five days for fungus strains, an aliquot was removed from the cultures frozen at −80° C. Medium was added to the surface of an appropriate agar plate and streaked with the aliquot. The plate was incubated for 20 to 24 hrs at 35±2° C. for bacteria or for 5 days at 26-30° C. in incubator for fungus. From the resulting growth on each plate, one isolated colony of similar morphology was selected and re-streaked onto a fresh agar plate using a sterile disposable loop. The plate was incubated 20 to 24 hrs at 35±2° C. or for 5 days at 26-30° C. in an incubator.
# (§3) Preparation of Assay Plates with Medium and Drugs. On the day of the assay, CAMHB medium or RPMI 1640 medium was removed from 4′C storage and allowed to reach room temperature. Ninety microliters (μL) of room temperature CAMHB or RPMI 1640 (supplemented with the appropriate concentration of DMSO, if required) were added to rows B-G of each 96-well microtiter plate. Using a pipette, duplicate 180 μL aliquots of each drug stock solution were added to column 1 (e.g. A1 and B1 or C1 and D1 or E1 and F1 or G1 and H1). Using a multichannel pipette or the Provision 2000 liquid handler, serial 2-fold dilutions (90 μL) were performed in each row across the plate to row G. Eighty μL of compounds dilutions were transferred to a 96-deep well plate. Medium, 1,520 μL of CAMHB or RPMI 1640, was added to each well. The contents of the wells were mixed thoroughly. A 50 μL aliquot of each of the resulting mixtures was transferred to a 96-well assay plate.
# For Candida albicans, a sterile inoculating loop was used to transfer growth from an agar plate culture into a tube with RPMI1640 medium. This inoculum was adjusted so that its density at 530 nm was in the ranges from 0.08 to 0.13. The resulting suspension was diluted 1:50 and further diluted 1:20 with the medium to obtain two times test inoculums.
# (§4) For Aspergillus niger, sporulating colonies were covered with RPMI 1640, and a suspension was prepared by gently probing the colonies with the tip of a transfer pipette. The suspension was transferred to a sterile tube and mixed with a vortex mixer for 15 seconds. The densities at 530 nm were adjusted to 0.09-0.13 for each sample. The resulting suspension was diluted 1:50 with the medium to obtain two times test inoculums. Fifty μL/well of this inoculum suspension was added to wells of drug-containing plates (1:2 dilution). Plates were incubated at 35° C. for the appropriate times. The MIC was read and recorded according to CLSI guidelines.
# (§5) The MIC values for thirty compounds against Escherichia coli, Pseudomonas aeruginosa, Staphulococcus aureus, Candida albicans, and Aspergillus niger were recorded and are presented in Table 3 and Table 4.
# [2] = tested on: Aspergillus niger (CMCC 98003); assay: as above; assay type: cell-based
# Experimental: as §1, §2, §3, §4, §5
# [3] = tested on: Staphylococcus aureus (ATCC 29213); assay: Time kill study, Example 33 (0 to 5 min); assay type: cell-based; details: 1×MIC
# Experimental: as §1
# (§6) The viable counts in Log10 CFU/mL at each time point were recorded.
# (§7) Time kill studies. Strain suspensions were prepared as described above for the MIC test, and strain suspensions and compound solutions were mixed in the same volume. Samples were removed at specified times including 0 min, 30 sec, 1 min and 5 mins, were diluted in the test medium and streaked on agar. Colonies were counted after 24 to 48 hrs of incubation. […]
# [4] = tested on: Pseudomonas aeruginosa (ATCC 27853); assay: Time kill study, Example 33 (0 to 5 min); assay type: cell-based; details: 1×MIC
# Experimental: as §1, §6, §7
# [5] = tested on: Escherichia coli (ATCC 25922); assay: Time kill study, Example 33 (0 to 5 min); assay type: cell-based; details: 1×MIC
# Experimental: as §1, §6, §7
# [6] = tested on: Pseudomonas aeruginosa (ATCC 27853); assay: Minimum inhibitory concentration (MIC) assay, Example 33; assay type: cell-based; details: for MIC: Table 19 summary
# Experimental: as §1, §2, §3
# (§8) For bacteria, a sterile inoculating loop was used to transfer growth from an agar plate culture into about 5 mL of test medium. Using a turbidity meter, this inoculum was adjusted so that its density (600 nm) was equivalent to a 0.5 McFarland barium sulfate standard (0.08-0.13). The resulting suspension was diluted 1:100 into medium to obtain two times test inoculums.
# as §4, §5
# [7] = tested on: Escherichia coli (ATCC 25922); assay: as above; assay type: cell-based; details: for MIC: Table 19 summary of Example 33 and Example 35
# Experimental: as §1, §2, §3, §8, §4, §5
# [8] = tested on: Staphulococcus aureus (ATCC 29213); assay: as above; assay type: cell-based, Staphylococcus aureus; details: for MIC: Table 19 summary
# Experimental: as §1, §2, §3, §8, §4, §5
# pH (Table 1) = assay type: physicochemical
# [9] = Table 19 summary, methanesulfonate
smiles,measurement,setting,value
"OC(Cn1cncn1)(Cn1cncn1)c1ccc(F)cc1F [Fluconazole, reference compound]",MIC,"[1]; Candida albicans, ATCC90029, n = 1, read-out: MIC Candida albicans",0.25 µg/mL
same,MIC,"[1]; Candida albicans, ATCC90029, n = 2, read-out: MIC Candida albicans",0.25 µg/mL
same,MIC,"[2]; Aspergillus niger, CMCC98003, n = 1, read-out: MIC Aspergillus niger",> 4000 µg/mL
same,MIC,"[2]; Aspergillus niger, CMCC98003, n = 2, read-out: MIC Aspergillus niger",> 4000 µg/mL
"CCCCCCCCCCCCOC(=O)C(C)N(C)C (stereo not drawn) [Nex-20, Dodecyl 2-(dimethylamino)propanoate maleate]","Viable counts, Staphylococcus aureus time kill study","[3]; 0.5 min, maleate",6.18 Log10 CFU/mL
same,"Viable counts, Staphylococcus aureus time kill study","[3]; 1 min, maleate",6.15 Log10 CFU/mL
same,"Viable counts, Staphylococcus aureus time kill study","[3]; 5 min, maleate",5.61 Log10 CFU/mL
same,"Viable counts, Staphylococcus aureus time kill study","[3]; time 0, maleate",6.15 Log10 CFU/mL
same,"Viable counts, Pseudomonas aeruginosa time kill study","[4]; 0.5 min, maleate",<4.0 Log10 CFU/mL
same,"Viable counts, Pseudomonas aeruginosa time kill study","[4]; 1 min, maleate",3.7 Log10 CFU/mL
same,"Viable counts, Pseudomonas aeruginosa time kill study",[4]; 5 min,<3.52 Log10 CFU/mL
same,"Viable counts, Pseudomonas aeruginosa time kill study","[4]; time 0, maleate",5.56 Log10 CFU/mL
same,"Viable counts, Escherichia coli time kill study","[5]; 0.5 min, maleate",5.84 Log10 CFU/mL
same,"Viable counts, Escherichia coli time kill study","[5]; 1 min, maleate",5.92 Log10 CFU/mL
same,"Viable counts, Escherichia coli time kill study","[5]; 5 min, maleate",4.37 Log10 CFU/mL
same,"Viable counts, Escherichia coli time kill study","[5]; time 0, maleate",5.86 Log10 CFU/mL
same,MIC,"[1]; Table 19 summary, maleate",12500 µg/mL
same,MIC Candida albicans,"[1]; n = 1, maleate",12500 µg/mL
same,MIC Candida albicans,"[1]; n = 2, maleate",12500 µg/mL
same,MIC,[6]; maleate,6250 µg/mL
same,MIC P. aeruginosa,"[6]; n = 1, maleate",6250 µg/mL
same,MIC P. aeruginosa,"[6]; n = 2, maleate",6250 µg/mL
same,MIC,[7]; maleate,1560 µg/mL
same,MIC E. coli,"[7]; n = 1, maleate",1560 µg/mL
same,MIC E. coli,"[7]; n = 2, maleate",1560 µg/mL
same,MIC,"[2]; Aspergillus niger, CMCC98003, Table 19 summary, read-out: MIC",> 12500 µg/mL
same,MIC Aspergillus niger,"[2]; n = 1, maleate",>12500 µg/mL
same,MIC S. aureus,"[8]; n = 1, maleate",3130 µg/mL
same,MIC S. aureus,"[8]; n = 2, maleate",1560 µg/mL
same,pH,pH (Table 1); maleate,3.39
"CCCCCCCCCCCCOC(=O)C(C)N(C)C (stereo not drawn) [Nex-22, Dodecyl 2-(dimethylamino)propanoate methanesulfonate]","Viable counts, Staphylococcus aureus time kill study","[3]; 0.5 min, methanesulfonate",6.2 Log10 CFU/mL
same,"Viable counts, Staphylococcus aureus time kill study","[3]; 1 min, methanesulfonate",6.18 Log10 CFU/mL
same,"Viable counts, Staphylococcus aureus time kill study","[3]; 5 min, methanesulfonate",6.21 Log10 CFU/mL
same,"Viable counts, Staphylococcus aureus time kill study","[3]; time 0, methanesulfonate",6.08 Log10 CFU/mL
same,"Viable counts, Pseudomonas aeruginosa time kill study","[4]; 0.5 min, methanesulfonate",<4.0 Log10 CFU/mL
same,"Viable counts, Pseudomonas aeruginosa time kill study","[4]; 1 min, methanesulfonate",<3.70 Log10 CFU/mL
same,"Viable counts, Pseudomonas aeruginosa time kill study","[4]; time 0, methanesulfonate",5.64 Log10 CFU/mL
same,"Viable counts, Escherichia coli time kill study","[5]; 0.5 min, methanesulfonate",4.6 Log10 CFU/mL
same,"Viable counts, Escherichia coli time kill study","[5]; 1 min, methanesulfonate",<3.70 Log10 CFU/mL
same,"Viable counts, Escherichia coli time kill study","[5]; 5 min, methanesulfonate",<3.52 Log10 CFU/mL
same,"Viable counts, Escherichia coli time kill study","[5]; time 0, methanesulfonate",5.78 Log10 CFU/mL
same,MIC,[1]; [9],>12500 µg/mL
same,MIC Candida albicans,"[1]; n = 1, methanesulfonate",>12500 µg/mL
same,MIC Candida albicans,"[1]; n = 2, methanesulfonate",>12500 µg/mL
same,MIC,[6]; methanesulfonate,6250 µg/mL
same,MIC P. aeruginosa,"[6]; n = 1, methanesulfonate",6250 µg/mL
same,MIC P. aeruginosa,"[6]; n = 2, methanesulfonate",6250 µg/mL
same,MIC,[7]; methanesulfonate,3130 µg/mL
same,MIC E. coli,"[7]; n = 1, methanesulfonate",3130 µg/mL
same,MIC E. coli,"[7]; n = 2, methanesulfonate",3130 µg/mL
same,MIC,[2]; [9],>12500 µg/mL
same,MIC Aspergillus niger,"[2]; n = 1, methanesulfonate",>12500 µg/mL
same,MIC,[8]; methanesulfonate,3130 µg/mL
same,MIC S. aureus,"[8]; n = 1, methanesulfonate",3130 µg/mL
same,MIC S. aureus,"[8]; n = 2, methanesulfonate",3130 µg/mL
same,pH,pH (Table 1); methanesulfonate,3.25
"CCCCCCCCCCCCOC(=O)C(C)N(C)C (stereo not drawn) [Nex-30, Dodecyl 2-(dimethylamino)propanoate ethanesulfonate]","Viable counts, Staphylococcus aureus time kill study",[3]; 0.5 min,6.23 Log10 CFU/mL
same,"Viable counts, Staphylococcus aureus time kill study",[3]; 1 min,6.22 Log10 CFU/mL
same,"Viable counts, Staphylococcus aureus time kill study",[3]; 5 min,6.21 Log10 CFU/mL
same,"Viable counts, Staphylococcus aureus time kill study",[3]; time 0,6.24 Log10 CFU/mL
same,"Viable counts, Pseudomonas aeruginosa time kill study",[4]; 0.5 min,<4.0 Log10 CFU/mL
same,"Viable counts, Pseudomonas aeruginosa time kill study",[4]; 1 min,<3.70 Log10 CFU/mL
same,"Viable counts, Pseudomonas aeruginosa time kill study",[4]; 5 min,<3.52 Log10 CFU/mL
same,"Viable counts, Pseudomonas aeruginosa time kill study",[4]; time 0,5.67 Log10 CFU/mL
same,"Viable counts, Escherichia coli time kill study",[5]; 0.5 min,5.46 Log10 CFU/mL
same,"Viable counts, Escherichia coli time kill study",[5]; 1 min,3.7 Log10 CFU/mL
same,"Viable counts, Escherichia coli time kill study",[5]; 5 min,<3.52 Log10 CFU/mL
same,"Viable counts, Escherichia coli time kill study",[5]; time 0,5.83 Log10 CFU/mL
same,MIC,[1]; Table 19 summary,>12500 µg/mL
same,MIC Candida albicans,[1]; n = 1,>12500 µg/mL
same,MIC Candida albicans,[1]; n = 2,>12500 µg/mL
same,MIC,[6],6250 µg/mL
same,MIC P. aeruginosa,[6]; n = 1,6250 µg/mL
same,MIC P. aeruginosa,[6]; n = 2,6250 µg/mL
same,MIC,[7],3130 µg/mL
same,MIC E. coli,[7]; n = 1,3130 µg/mL
same,MIC E. coli,[7]; n = 2,3130 µg/mL
same,MIC,[2]; Table 19 summary,>12500 µg/mL
same,MIC Aspergillus niger,[2]; n = 1,>12500 µg/mL
same,MIC Aspergillus niger,[2]; n = 2,>12500 µg/mL
same,MIC,[8],3130 µg/mL
same,MIC S. aureus,[8]; n = 1,3130 µg/mL
same,MIC S. aureus,[8]; n = 2,3130 µg/mL
same,pH,pH (Table 1),3.79
